Experimental data as given in ChEMBL document CHEMBL3885881, “DrugMatrix”.

Organism: Rattus norvegicus
Experiment: DrugMatrix - Regimen: Daily Repeat
Format: toxicity, organism-based, Sprague-Dawley
Set-up: regimen Daily Repeat, gender Male, age 6-8 weeks
Conditions: in vivo, po, route oral GAVAGE, […]; for ABSOLUTE BASOPHIL / ABSOLUTE EOSINOPHIL / ABSOLUTE LYMPHOCYTE / ABSOLUTE MONOCYTE / ABSOLUTE SEGMENTED NEUTROPHIL / BASOPHIL / EOSINOPHIL / ERYTHROCYTE COUNT / HEMATOCRIT / HEMOGLOBIN / LEUKOCYTE COUNT / LYMPHOCYTE / MEAN CORPUSCULAR HEMOGLOBIN / MEAN CORPUSCULAR HEMOGLOBIN CONCENTRATION / MEAN CORPUSCULAR VOLUME / MONOCYTE / NEUTROPHIL / NUCLEATED RED BLOOD CELLS / PLATELET COUNT: tissue Blood; for ALANINE AMINOTRANSFERASE / ALBUMIN / ALKALINE PHOSPHATASE / ASPARTATE AMINOTRANSFERASE / BLOOD UREA NITROGEN / CARBON DIOXIDE / CHLORIDE / CHOLESTEROL / CREATINE PHOSPHOKINASE / CREATININE / GLUCOSE / LACTATE DEHYDROGENASE / LIPASE / PHOSPHORUS / POTASSIUM / SODIUM / TOTAL BILIRUBIN / TOTAL PROTEIN: tissue Plasma
[1] = 0 mg/kg, 72 h, dose level Control, time 3 day
[2] = 0 mg/kg, 120 h, dose level Control, time 5 day
[3] = 40 mg/kg, 72 h, dose level Low, time 3 day

With `CN(C)CCCC1(c2ccc(F)cc2)OCc2cc(C#N)ccc21` (stereo not given) [CITALOPRAM] the “ABSOLUTE BASOPHIL” value [1] was 0 CELLS/uL, the “ABSOLUTE EOSINOPHIL” value [1] was 41.83 CELLS/uL and the “ABSOLUTE LYMPHOCYTE” value [1] was 8545.5 CELLS/uL. The “ABSOLUTE MONOCYTE” value [1] was 240 CELLS/uL, the “ABSOLUTE SEGMENTED NEUTROPHIL” value [1] was 906 CELLS/uL and the BASOPHIL [1] was 0%. The EOSINOPHIL [1] was 0.33%, the “ERYTHROCYTE COUNT” value [1] was 5.6 x10E6/uL and the HEMATOCRIT [1] was 35.4%. The HEMOGLOBIN [1] was 13.42 G/DL, the “LEUKOCYTE COUNT” value [1] was 9.73 x10E3/uL and the LYMPHOCYTE [1] was 87.83%. For the same molecule, the “MEAN CORPUSCULAR HEMOGLOBIN” value [1] was 23.98 pg, the “MEAN CORPUSCULAR HEMOGLOBIN CONCENTRATION” value [1] was 37.92 G/DL and the “MEAN CORPUSCULAR VOLUME” value [1] was 63.3 fL. The MONOCYTE [1] was 2.5%, the NEUTROPHIL [1] was 9.33% and the “NUCLEATED RED BLOOD CELLS” value [1] was 0 /100WBC. The “PLATELET COUNT” value [1] was 1032 x10E3/uL, the “ALANINE AMINOTRANSFERASE” value [1] was 72.83 u/L and the ALBUMIN [1] was 4 G/DL. For the same molecule, the “ALKALINE PHOSPHATASE” value [1] was 322.83 u/L, the “ASPARTATE AMINOTRANSFERASE” value [1] was 102.67 u/L and the “BLOOD UREA NITROGEN” value [1] was 12 mg/dL. For the same molecule, the “CARBON DIOXIDE” value [1] was 34.33 mmol/L, the CHLORIDE [1] was 97.67 MEQ/L and the CHOLESTEROL [1] was 82.5 mg/dL. The “CREATINE PHOSPHOKINASE” value [1] was 410.33 u/L, the CREATININE [1] was 0.18 mg/dL and the GLUCOSE [1] was 164.5 mg/dL. For the same molecule, the “LACTATE DEHYDROGENASE” value [1] was 119.5 u/L, the LIPASE [1] was 11.83 u/L and the PHOSPHORUS [1] was 9.52 mg/dL. For the same molecule, the POTASSIUM [1] was 5.56 MEQ/L, the SODIUM [1] was 142.48 MEQ/L and the “TOTAL BILIRUBIN” value [1] was 0.18 mg/dL. The “TOTAL PROTEIN” value [1] was 5.77 G/DL, the “ABSOLUTE BASOPHIL” value [2] was 0 CELLS/uL and the “ABSOLUTE EOSINOPHIL” value [2] was 0 CELLS/uL. The “ABSOLUTE LYMPHOCYTE” value [2] was 9065 CELLS/uL, the “ABSOLUTE MONOCYTE” value [2] was 341.33 CELLS/uL and the “ABSOLUTE SEGMENTED NEUTROPHIL” value [2] was 527 CELLS/uL. The BASOPHIL [2] was 0%, the EOSINOPHIL [2] was 0% and the “ERYTHROCYTE COUNT” value [2] was 5.25 x10E6/uL. For the same molecule, the HEMATOCRIT [2] was 34.08%, the HEMOGLOBIN [2] was 13.5 G/DL and the “LEUKOCYTE COUNT” value [2] was 9.93 x10E3/uL. The LYMPHOCYTE [2] was 91.17%, the “MEAN CORPUSCULAR HEMOGLOBIN” value [2] was 25.7 pg and the “MEAN CORPUSCULAR HEMOGLOBIN CONCENTRATION” value [2] was 39.62 G/DL. For the same molecule, the “MEAN CORPUSCULAR VOLUME” value [2] was 64.93 fL, the MONOCYTE [2] was 3.33% and the NEUTROPHIL [2] was 5.5%. The “NUCLEATED RED BLOOD CELLS” value [2] was 0 /100WBC, the “PLATELET COUNT” value [2] was 1077.5 x10E3/uL and the “ALANINE AMINOTRANSFERASE” value [2] was 57.83 u/L. The ALBUMIN [2] was 4.07 G/DL, the “ALKALINE PHOSPHATASE” value [2] was 319.17 u/L and the “ASPARTATE AMINOTRANSFERASE” value [2] was 83.33 u/L. For the same molecule, the “BLOOD UREA NITROGEN” value [2] was 13.67 mg/dL, the “CARBON DIOXIDE” value [2] was 30.83 mmol/L and the CHLORIDE [2] was 98.33 MEQ/L. The CHOLESTEROL [2] was 64.83 mg/dL, the “CREATINE PHOSPHOKINASE” value [2] was 263.67 u/L and the CREATININE [2] was 0.2 mg/dL. The GLUCOSE [2] was 182.83 mg/dL, the “LACTATE DEHYDROGENASE” value [2] was 124 u/L and the LIPASE [2] was 10.5 u/L. It also gave a PHOSPHORUS [2] of 10 mg/dL, a POTASSIUM [2] of 5.78 MEQ/L and an SODIUM [2] of 142.48 MEQ/L. For the same molecule, the “TOTAL BILIRUBIN” value [2] was 0.2 mg/dL, the “TOTAL PROTEIN” value [2] was 6 G/DL and the “ABSOLUTE BASOPHIL” value [3] was 0 CELLS/uL. For the same molecule, the “ABSOLUTE EOSINOPHIL” value [3] was 46.33 CELLS/uL, the “ABSOLUTE LYMPHOCYTE” value [3] was 12847 CELLS/uL and the “ABSOLUTE MONOCYTE” value [3] was 96.67 CELLS/uL. For the same molecule, the “ABSOLUTE SEGMENTED NEUTROPHIL” value [3] was 810 CELLS/uL, the BASOPHIL [3] was 0% and the EOSINOPHIL [3] was 0.33%. The “ERYTHROCYTE COUNT” value [3] was 5.4 x10E6/uL, the HEMATOCRIT [3] was 34.8% and the HEMOGLOBIN [3] was 13.67 G/DL. For the same molecule, the “LEUKOCYTE COUNT” value [3] was 13.8 x10E3/uL, the LYMPHOCYTE [3] was 93% and the “MEAN CORPUSCULAR HEMOGLOBIN” value [3] was 25.3 pg. For the same molecule, the “MEAN CORPUSCULAR HEMOGLOBIN CONCENTRATION” value [3] was 39.27 G/DL, the “MEAN CORPUSCULAR VOLUME” value [3] was 64.37 fL and the MONOCYTE [3] was 0.67%. The NEUTROPHIL [3] was 6%, the “NUCLEATED RED BLOOD CELLS” value [3] was 0 /100WBC and the “PLATELET COUNT” value [3] was 979.33 x10E3/uL. For the same molecule, the “ALANINE AMINOTRANSFERASE” value [3] was 61.33 u/L, the ALBUMIN [3] was 3.93 G/DL and the “ALKALINE PHOSPHATASE” value [3] was 390.33 u/L. For the same molecule, the “ASPARTATE AMINOTRANSFERASE” value [3] was 85.33 u/L, the “BLOOD UREA NITROGEN” value [3] was 9.33 mg/dL and the “CARBON DIOXIDE” value [3] was 28 mmol/L. The CHLORIDE [3] was 101 MEQ/L, the CHOLESTEROL [3] was 69.67 mg/dL and the “CREATINE PHOSPHOKINASE” value [3] was 135.67 u/L. For the same molecule, the CREATININE [3] was 0.31 mg/dL, the GLUCOSE [3] was 158.67 mg/dL and the “LACTATE DEHYDROGENASE” value [3] was 101.67 u/L. It also gave an LIPASE [3] of 14.33 u/L, a PHOSPHORUS [3] of 10.5 mg/dL and a POTASSIUM [3] of 6.13 MEQ/L. The SODIUM [3] was 144.7 MEQ/L and the “TOTAL BILIRUBIN” value [3] was 0.17 mg/dL.
